We go through two molecules from patent US12576048B2, “Anti-cancer activity of adamantane derivatives” (The Regents of the University of California, priority 2018, dated 2026).

The test system of assay [1] is MOSCC3 squamous cell carcinoma. Description: MTT proliferation assay, MOSCC3 (Example 2). Type of assay: cell-based, murine. As to conditions: 48 hours; FIG. 16C.
Assay [2] relates to B16-OVA melanoma tumor line. Description: MHC Class I expression in B16-OVA by flow cytometry (Example 2). Type of assay: cell-based, murine. As to conditions: 24 hours at indicated concentrations; FIG. 15.
In assay [3] the test system is CAL-27 squamous cell carcinoma cell line. Description: MTT proliferation assay, CAL-27. Type of assay: cell-based, human.
For assay [4], the system named is B16-OVA melanoma. Description: MTT proliferation assay, B16-OVA (Example 2). Type of assay: cell-based, murine. As to conditions: 48 hours; FIG. 16A.
Assay [5] concerns AT-84 E7 squamous cell carcinoma. Description: MTT proliferation assay, AT-84-E7 (Example 2). The class given is cell-based, murine. To be noted: 48 hours; FIG. 16B.
Assay [6] has as its system CAL-33 squamous cell carcinoma cell line. Description: BrdU cell cycle analysis, CAL-33. As to conditions: rimantadine alone; FIG. 13. Type of assay: cell-based, human. How it is done: (§1) FIG. 13 has plots showing the effect of rimantadine on human HNSCC lines as labeled. BrdU cell cycle analysis (upper) and MTT proliferation assay (lower).
(§2) Cell cycle progression was analyzed on the basis of BrdU incorporation following […] cell staining with BrdU-APC and 7-AAD using BD Pharmingen BrdU Flow Kit. (BD, Franklin Lakes, NJ) according to the manufacture's protocol. Cells were analyzed using flow cytometry. Cell proliferation was assessed by using MTT [3-(4,5-dimethylthiazol-2-yl)-2,5-diphenyltetrazolium bromide]. First, cells were seeded in 96-well plate and cultured for 2-3 days. Next, culture media was replaced with fresh media containing 0.5 mg/ml of MTT (Sigma) and the plates were incubated for 4 hours at 37° C. Then, purple formazan crystals were dissolved in lysis buffer (4 mM HCl and 0.1% NP-40 in isopropanol) and the absorbance was recorded on a TECAN infinite M200 microplate reader (Tecan, Männedorf, Switzerland) at a wavelength of 570 nm with absorbance at 650 nm as reference.

The subject of assay [7] is B16-OVA tumor cells. Description: Tumor volume in mice inoculated with B16-OVA tumor cells. Type of assay: in vivo. As to conditions: 10 mg/kg IP once daily, 7 injections starting on day 10; FIG. 1B, 1E. How it is done:
(§3) FIGS. 1A-1E are plots showing the effects of rimantadine or PEGylated rimantidine on tumor volume in different cancer models.
(§4) Mice were injected subcutaneously with 1.0 to 5.0×10^5 AT-84-E7, 1.5×10^5 B16-OVA, or 5.0×10^5 4T1 cells resuspended in 100 μl of PBS in the right flank. For orthotopic models, 1.0×10^5 AT-84-E7 or 1.0×10^6 4MOSC1 in 30 μl of PBS were injected into tongue. Tumor diameter was measured every 2 to 3 days with an electronic caliper and reported as volume using the formula; tumor volume (mm3)=(length×width2)/2. Once tumors become palpable, mice were treated with 200 μg of anti-PD-L1 antibody (BioXcell, West Lebanon, NH) via IP injection every 3 days for a total of three or four injections per mouse, or mice were treated with 10 mg/kg body weight of rimantadine (Sigma, St. Louis, MO) via IP injection daily for 7 days. For adoptive transfer experiments, first, single-cell suspension of spleen from OT-1 mice were cultured in media containing 10 ng/ml OVA SIINFEKL peptide (InvivoGen, San Diego, CA) and 2 ng/ml recombinant IL-2 (PeproTech, Rocky Hill, NJ) […], and then 4.0×10^6 cells were intravenously injected into B16-OVA-bearing mice.

For assay [8], the system named is CAL-33 squamous cell carcinoma cell line. Description: MTT proliferation assay, CAL-33. The class given is cell-based, human. As to conditions: rimantadine alone; FIG. 13. How it is done: as §1, §2
The test system of assay [9] is SCC-47 squamous cell carcinoma cell line. Description: MTT proliferation assay, SCC-47. The class given is cell-based, human. As to conditions: rimantadine alone; FIG. 13. Here is the method: as §1, §2
The test system is the same in assay [10]. Description: BrdU cell cycle analysis, SCC-47. The class given is cell-based, human. As to conditions: rimantadine alone; FIG. 13. Here is the method: as §1, §2
In assay [11] the test system is Stathmin. Description: Stathmin mRNA expression by RT-qPCR. Type of assay: cell-based. As to conditions: 24 hours. How it is done:
FIGS. 11A and 11B are plots showing Stathmin mRNA expression, which was analyzed 24 hours following treatment with rimantadine in AT-84-E7 cells and B16-OVA cells, respectively.
(§5) Total RNA were extracted using TRIzol Reagent (Invitrogen) and reverse transcribed with qScript cDNA Synthesis Kit (Quanta BioSciences, Beverly, MA) according to the manufacturer's instructions. Quantitative PCR analysis were conducted by using KAPA SYBR […] FAST (KAPA Biosystems, Wilmington, MA) on the 7900HT Fast Real-Time PCR System (Applied Biosystems, Foster City, CA).

The test system of assay [12] is AT-84-E7 and B16-OVA models. Description: Cell proliferation assay (MTT), FIG. 9. The class given is cell-based. As to conditions: 48 hours. How it is done: FIG. 9 has plots showing the cell proliferation assay (MTT), which was analyzed 48 hours following treatment with rimantadine.
as §2

The test system of assay [13] is RAW264.7 cell line. As to conditions: 48 hours after treatment.
Experimental: FIGS. 7A and 7B are plots showing cell surface expression of MHC I (H-2Kd) and MHC II (I-A/I-E), respectively, on rimantadine-treated RAW264.7 48 hours after treatment. Data are shown as mean±S.E.M. Statistics were done using an unpaired t-test.
After obtaining single-cell suspensions, each sample was incubated with an Fc blocking reagent (anti-CD16/32 antibody; BioLegend, San Diego, CA). Following Fc blockade, cells were stained with fluorescent-labeled antibodies [BioLegend, BD Bioscience (San Jose, CA), or eBiosciences (Thermo Fisher Scientific, Waltham, MA)]. LIVE/DEAD Fixable Cell Staining Kit (Invitrogen) was used for viability staining. For intracellular staining, cells were processed with Foxp3/Transcription Factor Fixation/Permeabilization Concentrate and Diluent (Invitrogen). Cells were analyzed using a BD FACS Aria II or LSR II flow cytometer (BD). Data was analyzed on FlowJo (FlowJo, LLC, Ashland, OR). For each antibody, the following clones were used: CD45.2 (104), CD3e (145-2C11), CD4 (RM4-5), CD8a (5H10), CD25 (3C7, PC61), CD44 (IM7), CD62L (MEL-14), IFN-γ (XMG1.2), Foxp3 (MF23), H-2Kb (AF6-88.5), H-2Kk (36-7-5), H-2Kd (SF1-1.1), H-2Kb/[sequence] (eBio25-D1.16), I-A/I-E (2G9), CD49b (DX5), CD11b (M1/70), FLAG (L5), CD31 (MEC13.3), NK-T/NK Cell Antigen (U5A2-13), CD102 (3C4 (MIC2/4)), CD62P (RMP-1), CD105 (MJ7/18), CD106 (429 (MVCAM.A)), and CD162 (2PH1).
For assay [14], the system named is E5-positive AT-84-E7.
Assay [15] deals with multiple cell lines (AT-84-E7, B16-OVA, 4T1, B16, MC38). As to conditions: rimantadine 100 μM, 48 hours or 24 hours; FIGS. 3A-3E, 4A-D.
Experimental: FIGS. 3A-3E are plots showing MHC I expression or antigen-presentation (H-2Kb/[sequence]) as analyzed by flow cytometry after rimantadine treatment (100 μM, 48 hours). FIG. 3A is a plot showing MHC I expression for the AT-84-E7 model. FIG. 3B is a plot showing MHC I expression for the B16-OVA model. FIG. 3C is a plot showing antigen-presentation (H-2Kb/[sequence]) for the B16-OVA model. FIG. 3D is a plot showing MHC I expression for the 4T1 model.
FIGS. 4A-4D are plots showing MHC expression in tumor cells. FIGS. 4A and 4B show MHC I expression analyzed by flow cytometry 48 hours after rimantadine treatment for B16 and MC38 cells, respectively. FIGS. 4C and 4D are plots showing expression of MHC I and antigen presentation (H-2Kb/[sequence]), respectively, 24 hours after rimantadine treatment in B16-OVA cells.
After obtaining single-cell suspensions, each sample was incubated with an Fc blocking reagent (anti-CD16/32 antibody; BioLegend, San Diego, CA). Following Fc blockade, cells were stained with fluorescent-labeled antibodies [BioLegend, BD Bioscience (San Jose, CA), or eBiosciences (Thermo Fisher Scientific, Waltham, MA)]. LIVE/DEAD Fixable Cell Staining Kit (Invitrogen) was used for viability staining. […] Cells were analyzed using a BD FACS Aria II or LSR II flow cytometer (BD). Data was analyzed on FlowJo (FlowJo, LLC, Ashland, OR). […]
The test system of assay [16] is T cells. Description: T-cell proliferation assay using CFSE-labeled T-cells. The class given is cell-based. To be noted: FIGS. 10A and 10B. An excerpt:
FIGS. 10A and 10B are plots showing T-cell proliferation assay using CFSE-labeled T-cells simulated to proliferate in the presence or absence of rimantadine.

Assay [17] has as its system B16-OVA cells co-cultured with B3Z cells. Description: B3Z activation assay. Type of assay: cell-based. To be noted: 100 μM rimantadine 24 hours, then 24 hours co-culture; FIG. 5. Here is the method: FIG. 5 is a plot showing B3Z activation after rimantadine treatment (48 hours).
B16-OVA cells were seeded into 96-well plate and treated with 100 μM rimantadine for 24 hours, prior to addition of B3Z cells. After 24 hours of co-culture, medium was removed and 100 μl of lysis buffer [0.155 mM chlorophenol red β-D-galactopyranoside (CPRG) (Roche), 0.125% Nonidet P-40 Alternative (EMD-Calbiochem), and 9 mM MgCl2 (Sigma) in PBS] was added. After incubation for 4 hours at 37° C., the absorbance at 570 nm was determined on a TECAN infinite M200 microplate reader.

The subject of assay [18] is murine and human cell lines engineered to express HPV16 E5. Type of assay: cell-based. As to conditions: 24 hours; FIG. 14.
Assay [19] concerns AT-84-E7. Description: BrdU cell cycle analysis, AT-84-E7. Type of assay: cell-based, murine. To be noted: 24 hours; FIG. 8. Here is the method:
(§6) FIG. 8 has plots showing the BrdU cell cycle analyzed for 24 hours following treatment with rimantadine,
as §2

Assay [20] relates to 4MOSC1 tumor cells. Description: Tumor volume in mice inoculated with 4MOSC1 tumor cells (orthotopic HNSCC model). As to conditions: 10 mg/kg IP once daily, 7 injections once tumors palpable; FIG. 1D. The class given is in vivo. How it is done: as §3, §4
Assay [21] deals with AT-84-E7 tumors which didn't express E5. Description: Tumor volume in mice inoculated with AT-84-E7 cells not expressing E5 (empty vector). The class given is in vivo. As to conditions: rimantadine for one week; FIG. 2A vs 2B. How it is done: FIGS. 2A and 2B are plots showing the effects of rimantadine on tumor.
as §4

For assay [22], the system named is 4T1 tumor cells. Description: Tumor volume in mice inoculated with 4T1 tumor cells. Type of assay: in vivo. As to conditions: 10 mg/kg IP once daily, 7 injections starting on day 6; FIG. 1C. How it is done:
as §3, §4

Assay [23] relates to Tau. Description: Tau mRNA expression by RT-qPCR. Type of assay: cell-based. To be noted: 24 hours; FIGS. 12A and B. Here is the method:
FIGS. 12A and 12B are plots showing Tau mRNA expression, which was analyzed 24 hours following treatment with rimantadine.
as §5

Assay [24] concerns AT84-E7/E5 tumor cells. Description: Tumor volume in mice inoculated with AT84-E7/E5 tumor cells. As to conditions: 10 mg/kg IP once daily, 7 injections starting on day 8; FIG. 1A. Type of assay: in vivo. Here is the method: as §3, §4
Assay [25] deals with CAL-27 squamous cell carcinoma cell line. Description: BrdU cell cycle analysis, CAL-27. To be noted: rimantadine alone; FIG. 13. The class given is cell-based, human. Here is the method: as §1, §2
Assay [26] relates to B16-OVA. Description: BrdU cell cycle analysis, B16-OVA. As to conditions: 24 hours; FIG. 8. The class given is cell-based, murine. How it is done:
as §6, §2

As for `CC12CC3CC(C)(C1)CC(N)(C3)C2` [memantine], the “proliferation (MTT)” value is on record as “inhibit proliferation” in assay [1]; “inhibited proliferation” in assay [3] (48 hours, FIG. 17A); “inhibited proliferation” in [3] (72 hours, FIG. 17B); “inhibit proliferation” in assay [4]; “inhibit proliferation” in [5]. The “MHC Class I Expression” value in assay [2] is recorded as “upregulated”.
With `CC(N)C12CC3CC(CC(C3)C1)C2` (centres unmarked) [rimantadine], the “cell cycle arrest (BrdU)” value is listed as “Significant cell cycle arrest” in assay [6], “Significant cell cycle arrest” in [10], “induced cell cycle arrest” in [18] and “Significant cell cycle arrest” in assay [25]. Besides, the “tumor sizes compared to control groups” value in [7] and in assay [22] was “statistically significant decreases in tumor sizes” in each case. The “proliferation (MTT)” value in assay [8] is reported as “decreased proliferation”; in [9] it was “decreased proliferation”; in assay [1] it was “inhibit proliferation”; in assay [3] (48 hours, FIG. 17A), “inhibited proliferation”; in assay [3] (72 hours, FIG. 17B) it was “inhibited proliferation”; in assay [3] (rimantadine alone, FIG. 13), “decreased proliferation”. Further, the “proliferation (MTT)” value in [4] and in assay [5] was “inhibit proliferation” in each case. Further, the “Stathmin mRNA expression” value in assay [11] (AT-84-E7 cells, FIG. 11A) is “significant decreases”; in [11] (B16-OVA cells, FIG. 11B) it was “significant decreases”. In addition, the “cell proliferation (MTT)” value in assay [12] is “Suppression of cell proliferation”. Moreover, the “MHC class I surface expression” value in assay [13] (H-2Kd, FIG. 7A) is on record as “significant increases”. Moreover, the “MHC class II surface expression” value in assay [13] (I-A/I-E, FIG. 7B) is given as “significant increases”. Further, the “cell surface expression of MHC I” value in assay [14] is given as “restored”. The “surface expression of MHC” value in [15] is listed as “Significant increases”. Moreover, the “proliferation of T cells” value in [16] is on record as “no significant effect”. Also, the “increase in recognition of model tumor antigen by B3Z cells” value in [17] was 3 fold. For the same molecule, the “GO/G1 cell cycle arrest” value in assay [19] and in assay [26] was “significant increases” each time. Besides, the S phase entry in assay [19] and in [26] was “significant decreases” each time. Further, in [20], the “anti-tumor activity (tumor volume)” value was “significant anti-tumor activity”. Moreover, the “anti-tumor effect (tumor volume) relative to E5-expressing tumors” value in assay [21] is “decreased”. In addition, the “MHC Class I Expression” value in [2] is listed as “upregulated”. Besides, in assay [23], the “Tau mRNA expression” value is recorded as “Decreases”. The “tumor size compared to control groups” value in assay [24] is given as “statistically significant decreases in tumor size”.
